Laboratory results from ChEMBL document CHEMBL1201862, “PubChem BioAssay data set” (2004).
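Grown in 96-well plates, cells were treated for 48 hours with each compound at five concentrations. Insufficient inhibition: endpoint recorded as highest concentration tested. The concentration for 50% growth inhibition is given as GI50.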 Calls of active or inactive are those of the source. Rule as the data show it: active = GI50 up to about 1.1 µM and inactive = higher.

How the values were obtained:
Test in all cases: NCI tumour cell line growth inhibition, 48 h
SNB-75 = tested on: SNB-75
MOLT-4 = tested on: MOLT-4
NCI-H226 = tested on: NCI-H226
RPMI-8226 = tested on: RPMI-8226
NCI-H23 = tested on: NCI-H23
NCI-H522 = tested on: NCI-H522
SK-MEL-2 = tested on: SK-MEL-2
SF-295 = tested on: SF-295
CCRF-CEM = tested on: CCRF-CEM
UO-31 = tested on: UO-31
UACC-62 = tested on: UACC-62
CAKI-1 = tested on: CAKI-1
HOP-92 = tested on: HOP-92
HCC 2998 = tested on: HCC 2998
HL-60 = tested on: HL-60
OVCAR-5 = tested on: OVCAR-5
A498 = tested on: A498
ACHN = tested on: ACHN
NCI-H460 = tested on: NCI-H460
MCF7 = tested on: MCF7

Measured: GI50

CC1=C(C(=O)Nc2ccc(Cl)c(C(=O)OC(C)C)c2)SCCO1
inactive: SNB-75 75.9 µM | MOLT-4 40.4 µM | NCI-H226 75.3 µM | RPMI-8226 23.3 µM | NCI-H23 69.2 µM | NCI-H522 36.4 µM | SK-MEL-2 68.4 µM | SF-295 54.7 µM | CCRF-CEM 48.6 µM | UO-31 36.9 µM | UACC-62 67.6 µM | CAKI-1 > 100 µM | HOP-92 66.2 µM | HCC 2998 54.8 µM | HL-60 13.8 µM | OVCAR-5 47.9 µM | A498 53.5 µM | ACHN > 100 µM | NCI-H460 66.2 µM | MCF7 55.3 µM

CCOC(=O)c1c(SC(=O)c2ccc(Cl)cc2)n(-c2ccccc2)c(=S)n(-c2ccccc2)c1=O
inactive: SNB-75 > 100 µM | MOLT-4 > 100 µM | NCI-H226 > 100 µM | NCI-H23 > 100 µM | NCI-H522 > 100 µM | SF-295 > 100 µM | CCRF-CEM > 100 µM | UACC-62 > 100 µM | CAKI-1 > 100 µM | HOP-92 > 100 µM | HCC 2998 > 100 µM | HL-60 > 100 µM | OVCAR-5 > 100 µM | A498 > 100 µM | ACHN > 100 µM | NCI-H460 > 100 µM | MCF7 > 100 µM

CN1C(=O)NC(=O)/C(=C\Nc2ncccn2)C1=O
inactive: SNB-75 > 100 µM | MOLT-4 > 100 µM | NCI-H226 > 100 µM | NCI-H23 > 100 µM | NCI-H522 > 100 µM | SK-MEL-2 > 100 µM | SF-295 > 100 µM | UO-31 > 100 µM | UACC-62 > 100 µM | CAKI-1 > 100 µM | HOP-92 > 100 µM | HL-60 > 100 µM | OVCAR-5 > 100 µM | A498 > 100 µM | ACHN > 100 µM | NCI-H460 > 100 µM | MCF7 > 100 µM

COc1cc2c(cc1OC)C(Cc1c3ccccc3cc3ccccc13)N(C)CC2 (stereo unspecified)
inactive: SNB-75 14.4 µM | MOLT-4 16 µM | NCI-H226 24.1 µM | RPMI-8226 13.9 µM | NCI-H23 29 µM | NCI-H522 24.4 µM | SK-MEL-2 17.6 µM | SF-295 17.4 µM | CCRF-CEM 18.8 µM | UO-31 13 µM | UACC-62 17.8 µM | CAKI-1 25.1 µM | HOP-92 11.4 µM | HL-60 10.4 µM | OVCAR-5 13.5 µM | A498 17.4 µM | NCI-H460 20 µM | MCF7 13.7 µM

CCOC(=O)/C=C(/C)Nc1nc2c(c(C(=O)OC)c1C#N)CCCC2
inactive: MOLT-4 63 µM | NCI-H226 > 100 µM | RPMI-8226 > 100 µM | NCI-H23 > 100 µM | NCI-H522 > 100 µM | SK-MEL-2 > 100 µM | SF-295 > 100 µM | CCRF-CEM > 100 µM | UO-31 > 100 µM | UACC-62 > 100 µM | CAKI-1 > 100 µM | HOP-92 > 100 µM | HCC 2998 > 100 µM | HL-60 69.3 µM | OVCAR-5 > 100 µM | A498 > 100 µM | ACHN > 100 µM | NCI-H460 > 100 µM | MCF7 > 100 µM
